# Experimental data from ChEMBL document CHEMBL1156093, “Synthesis and biological activity of dialkylphosphocholines” (Bioorg Med Chem Lett, 2009).
# Legend:
# [1] = test system: Candida albicans; experiment: Antifungal activity against Candida albicans; type: functional
# [2] = test system: HFL1; experiment: Cytotoxicity against human HFL1 cells; type: cell-based
# [3] = test system: Acanthamoeba lugdunensis; experiment: Antiprotozoal activity against Acanthamoeba lugdunensis; type: functional
# [4] = test system: HeLa; experiment: Cytotoxicity against human HeLa cells; type: functional, cell-based
SMILES,MFC [1] [µM],IC50 [2] [µM],MTC [3] [µM],IC50 [4] [µM]
CCCCCCCCCCCCOP(=O)([O-])OCC[N+](C)(C)CCCCCCCCCC,9.7,58.8,>400,131
CCCCCCCCCCCCCCOP(=O)([O-])OCC[N+](C)(C)CCCCCCCC,19.3,,>400,
CCCCCCCCCCCC[N+](C)(C)CCCCCCOP(=O)([O-])OCCCCCCCCCC,34.8,,>400,
CCCCCCCCCCCC[N+](C)(C)CCCCOP(=O)([O-])OCCCCCCCCCC,18.6,94.6,200,148
CCCCCCCCCCOP(=O)([O-])OCC[N+](C)(C)CCCCCCCCCC,20.5,,25,
CCCCCCCCCCCCCCCCCCCC[N+](C)(C)CCOP(=O)([O-])OCC,1240,,>400,
CCCCCCCCCCCCCC[N+](C)(C)CCOP(=O)([O-])OCCCCCCCC,9.7,,>400,
CCCCCCCCCCCC[N+](C)(C)CCCOP(=O)([O-])OCCCCCCCCCC,9.4,57.7,100,112
CCCCCCCCCCCCCCCC[N+](C)(C)CCOP(=O)([O-])OCCCCCC,19.3,110,>400,170
CCCCCCCCCCCCCCCCCCCCOP(=O)([O-])OCC[N+](C)(C)CC,619,27.2,>400,20.3
CCCCCCCCCC[N+](C)(C)CC[N+](C)(C)CCCCCCCCCC.[Br-].[Br-],17.5,,200,
CCCCCCCCCCCCCCCCOP(=O)([O-])OCC[N+](C)(C)CCCCCC,77.4,,>400,
CCCCCCCCCCCC[N+](C)(C)CCOP(=O)([O-])OCCCCCCCCCC,19.3,43.8,>400,118
CCCCCCCCCCCCCCCCCCOP(=O)([O-])OCC[N+](C)(C)CCCC,19.3,113,>400,161
CCCCCCCCCCCC[N+](C)(C)CCCCCCCCCCOP(=O)([O-])OCCCCCCCCCC,8100,,>400,
CCCCCCCCCCCCCCCCCC[N+](C)(C)CCOP(=O)([O-])OCCCC,9.7,,>400,
CCCCCCCCCCCCCCCCOP(=O)([O-])OCC[N+](C)(C)C [MILTEFOSINE],4,203,400,129
